These results are taken from ChEMBL document CHEMBL1151947, “Synthesis, potency, and in vivo evaluation of 2-piperazin-1-ylquinoline analogues as dual serotonin reuptake inhibitors and serotonin 5-HT1A receptor antagonists” (J Med Chem, 2009).

SMILES strings stand for the structures.

Test [1] has as its target T1, 5-hydroxytryptamine receptor 1A (Homo sapiens) (UniProt P08908).
T1 sequence (whole entry): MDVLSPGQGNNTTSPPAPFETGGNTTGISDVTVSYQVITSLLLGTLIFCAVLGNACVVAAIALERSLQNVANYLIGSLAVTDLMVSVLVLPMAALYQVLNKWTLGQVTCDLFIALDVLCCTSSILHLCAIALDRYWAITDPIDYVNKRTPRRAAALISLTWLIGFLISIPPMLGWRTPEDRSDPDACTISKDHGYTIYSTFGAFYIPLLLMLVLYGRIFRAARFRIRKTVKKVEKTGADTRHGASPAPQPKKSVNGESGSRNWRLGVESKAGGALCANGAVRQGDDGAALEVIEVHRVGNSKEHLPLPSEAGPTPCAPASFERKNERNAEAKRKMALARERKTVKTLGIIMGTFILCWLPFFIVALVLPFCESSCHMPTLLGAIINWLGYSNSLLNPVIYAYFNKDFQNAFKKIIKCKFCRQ
In words: Antagonist activity at human 5HT1A receptor expressed in CHO cells assessed as inhibition of [35S]GTPgammaS binding relative to control. The test is classed as functional, cell-based. (In general: GTPγS resists hydrolysis and so accumulates on activated G proteins.)

Test [2] concerns the target T2, 5-hydroxytryptamine receptor 1A (Homo sapiens, UniProt P08908).
T2 sequence (P08908 whole entry): T1 sequence (whole entry)
The test can be described thus: biochemical.
Description: Displacement of [3H]8-OH-DPAT from human 5HT1A receptor expressed in CHO cells

Test [3] concerns the target Sodium-dependent serotonin transporter (Rattus norvegicus, UniProt P31652).
Description: Displacement of [3H]paroxetine from 5HT transporter in rat cortical membrane
For test [4], the target named is T2, 5-hydroxytryptamine receptor 1A.
Description: Antagonist activity at human 5HT1A receptor expressed in CHO cells assessed as stimulation of [35S]GTPgammaS binding
Test [5] concerns the target Sodium-dependent serotonin transporter (Rattus norvegicus) (UniProt P31652). The test can be described thus: Ratio Ki for drug to Ki for (2S)-8-Methyl-2-{[4-(6-nitroquinolin-2-yl)piperazin-1-yl]- methyl}-2,3-dihydro[1,4]dioxino[2,3-f ]quinoline against 5HT transporter in rat cortical membrane. The test is classed as cell membranes.
Test [6] concerns the target Sodium-dependent serotonin transporter (Homo sapiens, UniProt P31645). In words: Antagonist activity at human 5HT transporter expressed in staurosporine treated human JAR cells. The test is classed as functional, cell-based.

Sequence of Sodium-dependent serotonin transporter (Rattus norvegicus, UniProt P31652) (P31652 whole entry): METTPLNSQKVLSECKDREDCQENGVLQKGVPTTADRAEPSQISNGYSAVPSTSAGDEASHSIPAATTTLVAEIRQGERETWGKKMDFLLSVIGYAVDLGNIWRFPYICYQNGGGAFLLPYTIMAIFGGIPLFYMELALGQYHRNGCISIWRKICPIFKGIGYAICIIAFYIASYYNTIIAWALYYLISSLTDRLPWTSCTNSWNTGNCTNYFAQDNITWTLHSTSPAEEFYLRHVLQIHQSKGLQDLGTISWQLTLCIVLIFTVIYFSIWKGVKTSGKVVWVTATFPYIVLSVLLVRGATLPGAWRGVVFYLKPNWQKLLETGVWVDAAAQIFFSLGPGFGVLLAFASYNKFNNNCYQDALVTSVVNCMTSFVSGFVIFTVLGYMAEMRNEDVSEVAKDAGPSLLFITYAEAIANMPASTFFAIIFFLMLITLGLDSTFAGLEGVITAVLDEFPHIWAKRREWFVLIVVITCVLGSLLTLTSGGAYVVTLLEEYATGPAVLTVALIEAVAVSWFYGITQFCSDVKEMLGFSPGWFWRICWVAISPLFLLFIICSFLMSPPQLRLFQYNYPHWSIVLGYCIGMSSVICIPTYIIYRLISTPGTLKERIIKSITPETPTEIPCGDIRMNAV
Sequence of Sodium-dependent serotonin transporter (Rattus norvegicus) (P31652 whole entry): as above
Sequence of Sodium-dependent serotonin transporter (Homo sapiens, UniProt P31645) (P31645 whole entry): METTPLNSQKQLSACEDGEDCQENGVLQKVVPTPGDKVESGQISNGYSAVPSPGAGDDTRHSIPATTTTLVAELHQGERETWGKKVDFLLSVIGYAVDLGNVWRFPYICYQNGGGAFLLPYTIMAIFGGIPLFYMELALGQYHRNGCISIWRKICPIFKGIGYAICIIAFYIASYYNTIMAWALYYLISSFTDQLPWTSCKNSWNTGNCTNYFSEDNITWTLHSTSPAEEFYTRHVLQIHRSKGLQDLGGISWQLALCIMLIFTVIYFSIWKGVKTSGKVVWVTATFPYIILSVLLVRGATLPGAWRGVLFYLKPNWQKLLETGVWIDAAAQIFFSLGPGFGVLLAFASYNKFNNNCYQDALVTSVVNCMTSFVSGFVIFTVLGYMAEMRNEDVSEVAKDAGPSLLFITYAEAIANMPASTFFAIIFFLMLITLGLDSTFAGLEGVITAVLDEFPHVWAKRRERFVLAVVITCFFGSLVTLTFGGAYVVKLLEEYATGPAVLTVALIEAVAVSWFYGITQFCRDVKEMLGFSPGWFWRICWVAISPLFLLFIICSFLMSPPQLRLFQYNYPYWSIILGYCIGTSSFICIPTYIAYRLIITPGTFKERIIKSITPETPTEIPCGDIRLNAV

Regarding `Cc1ccc2c3c(ccc2n1)OC[C@H](CN1CCN(c2ccc4cc(OC(F)(F)F)ccc4n2)CC1)O3`, in test [1], the Imax turned out to be 85%. Moreover, the Ki in test [2] came to 172 nM; in test [3] it was 148 nM. The compound also returned an IC50 in test [4] of 588 nM.

For the compound `Cc1ccc2c3c(ccc2n1)OC[C@H](CN1CCCN(c2ccc4cc(C#N)ccc4n2)CC1)O3`, the Imax in test [1] was found to be 53%. In test [2], this compound gave a Ki of 2 nM. Further, the IC50 in test [4] is 58 nM.

As to `Cc1ccc2c3c(ccc2n1)OC[C@H](CN1CCN(c2ccc4cc(Cl)ccc4n2)CC1)O3`, the Imax in test [1] came out at 62%. The compound further showed a Ki in test [3] of 0.88 nM. The same compound had an IC50 in test [4] of 781 nM.

As to `Cc1ccc2c3c(ccc2n1)OC[C@H](CN1CCN(c2ccc4ccccc4n2)C[C@H]1C)O3`, the Imax in test [1] is 85%. Besides, the IC50 in test [4] stood at 117 nM.

As for `Cc1ccc2c3c(ccc2n1)OC[C@H](CN1CCN(c2ccc4ccccc4n2)C[C@@H]1C)O3`, the Imax in test [1] turned out to be 76.5%. Also, in test [3], the inhibition constant (Ki) is 10.3 nM. This compound yielded a half-maximal inhibitory concentration (IC50) in test [4] of 1900 nM.

Regarding `Cc1ccc2c3c(ccc2n1)OC[C@H](CN1CCN(c2ccc4cc(Br)ccc4n2)CC1)O3`, in test [1], the Imax is 96%. The Ki in test [3] was determined as 12.7 nM. In test [4], this compound had an IC50 of 156 nM.

As to `Cc1ccc2c3c(ccc2n1)OC[C@H](CN1CCN(c2ccc4cc(C#N)ccc4n2)C[C@H]1C)O3`, the Imax in test [1] is 92%. In addition, the Ki in test [2] is 2.8 nM; in test [3], 89.6 nM. The same compound showed an IC50 in test [4] of 180 nM.

As for `Cc1ccc2c3c(ccc2n1)OC[C@H](CN1CCN(c2ccc4cc(F)ccc4n2)CC1)O3`, the Imax in test [1] was determined as 100%. For the same compound, the Ki in test [2] was determined as 32.9 nM; in test [3], 66 nM. Further, the IC50 in test [4] was 2170 nM.

In the case of `Cc1ccc2c3c(ccc2n1)OC[C@H](CN1CCN(c2ccc4ccccc4n2)CC1)O3`, the Imax in test [1] was determined as 100%. For the same compound, the Ki in test [3] amounted to 75 nM. This compound also yielded an IC50 in test [4] of 4870 nM.

As for `Cc1ccc2c3c(ccc2n1)OC[C@H](CN1CCN(c2ccc4cc([N+](=O)[O-])ccc4n2)CC1)O3`, in test [1], the Imax is 79%. Besides, the Ratio Ki in test [5] stood at 9. In test [4], this compound gave an IC50 of 294 nM.

On to `Cc1ccc2c3c(ccc2n1)OC[C@H](CN1CCN(c2ccc4cc(C(N)=O)ccc4n2)CC1)O3`, for which the Imax in test [1] amounted to 100%. For the same compound, the Ki in test [3] came out at 17 nM. In test [4], it took 164 nM to reach half-maximal inhibition (IC50).

Regarding `Cc1ccc2c3c(ccc2n1)OC[C@H](CN1CCCN(c2ccc4cc(F)ccc4n2)CC1)O3`, the Imax in test [1] is 74%. Further, the inhibition constant (Ki) in test [2] is 1.5 nM; in test [3] it was 3.9 nM. This compound also came in with an IC50 in test [4] of 70 nM.

As to `Cc1ccc2c3c(ccc2n1)OC[C@H](CN1CCCN(c2ccc4ccccc4n2)CC1)O3`, in test [1], the Imax was 58%. Also, the Ki was 6.8 nM in test [2] and 7.4 nM in test [3]. The same compound gave an IC50 in test [4] of 70 nM.

With `Cc1ccc2c3c(ccc2n1)OC[C@H](CN1CC=C(c2c[nH]c4ccccc24)CC1)O3`, the Imax in test [1] was 98.3%. Also, the Ki was determined as 3.02 nM in test [2] and 2.34 nM in test [3]. The IC50 in test [6] came out at 145 nM; in test [4] it was 56.7 nM.

As a reminder, the Ki is the equilibrium dissociation constant of an inhibitor or competing ligand from its target. A lower Ki goes with tighter binding. As usually defined, the IC50 is the concentration that inhibits the measured activity by half. A low value points to inhibition by little substance.
